This is an account of results in patent US20060293282A1, “Substituted aminoalkanephosphonic acids” (priority 2002, published 2006).

Assay [1] deals with Wistar Kyoto rats. In words: Test 2: NMDA-channel blocker induced head swaying and circling. Type of assay: in vivo. Conditions: rat, 10 mg/kg s.c., 0-30 min. As to the method:
Test 2: NMDA-Channel Blocker Induced Head Swaying and Circling:
Adult male Wistar Kyoto rats (340-380 g; Iffa Credo, Lyon, France) are used. The animals are randomized to the following treatment groups (n=10 per group): the compound (dosed 0, 3 or 10 mg/kg) followed by phencyclidine (PCP; an NMDA channel blocker, dosed 0 or 10 mg/kg). Compound (at t=−15 min) and PCP (at t=0 min) are administered s.c. in a volume of 1 ml/kg. Video-recordings of the animals behaviour over the period 0-30 min following PCP are scored by an observer who is unaware about the animals pretreatment. Head-swaying (rocking the head repeatedly by at least 2 cm left and right) and circling (turning around by using the forepaws, whereas the hindpaws remain more or less on the original position) are scored as present (1) or absent (0), every five minutes for the duruation of 1 minute. The scores for individual animals is summed and group scores used for statistical analysis (t-test with Bonferroni correction).

In assay [2] the test system is Wistar Kyoto rats. The experiment in a line: Test 1: NMDA-antagonist induced locomotion. Type of assay: in vivo. The conditions noted are these: rat. As for the experimental part: Test 1: NMDA-Antagonist Induced Locomotion:
Male Wistar Kyoto rats (Iffa Crédo, Lyon, France) weighing between 250 and 310 g are used. In principle 4 treatment groups are formed: 1) the compound (doses 1, 3 or 10 mg/kg) followed by the competitive NMDA receptor antagonist (S)-2-amino-3-(2′-chloro-5-phosphonomethyl-biphenyl-3-yl)-propionic acid, hereinafter SDZ 220-581 (10 mg/kg), 2) solvent-pretreatment followed by SDZ 220-581 (10 mg/kg), 3) solvent followed by solvent, 4) the compound (1, 3, 10 mg/kg) followed by solvent. Rats are randomly allocated to these pretreatment groups (n=10/dose group). Drugs are administered subcutaneous (s.c.), 15 min prior to SDZ 220-581. Immediately after the animals received SDZ 220-581, they are placed into the activity monitor for a period of 60 min. Locomotor activity is analysed over the initial 30 minutes.
Locomotion is recorded with a videotracking system (VideoMot2, TSE Technical and Scientific Equipment GmbH, Bad Hombourg, Germany), using a closed circuit digital videocamera (WV-BP.330/GE, Panasonic, Osaka, Japan). The video-signal from the camera is digitized and used for data analysis. Animals are on a normal 12/12 h day-night cycle, with light on at 06:00H. Experiments are performed in a dimly lit room between 07:00 H and 15:00H. […] The camera is placed such, that four animals (one per arena) can be recorded simultaneously.

For assay [3], the system named is patients with diabetic neuropathy. In words: clinical study of chronic pain in patients with diabetic neuropathy. The conditions noted are these: 2400 mg/day, Maintenance and Follow-up Periods, statistically significant. Type of assay: in vivo, human. As to the method:
The activity of the compounds of formula I in the treatment of neuropathic pain can be confirmed in clinical trials, for example in the following study aimed at evaluating the efficacy of a compound in treating chronic pain in patients with diabetic neuropathy:
Patients are randomized to receive 2400 mg/day of the compound or placebo in a 1:1 ratio.
The study consists of a Pre-randomization Phase (1 week) and a Double-blind Phase (5 weeks). The double-blind Phase consists of three periods: a one week Titration Period, a three-week Maintenance Period and a one-week Follow-up Period.
During the 1-week Pre-randomization Phase, the eligibility of the patients is evaluated. Patents meeting all inclusion/exclusion criteria are randomized to either the compound or placebo in the Double-blind Phase. […]
The SF-MPQ total pain score at the end of the Maintenance Period is analyzed using an analysis of covariance model adjusting for the effect of treatment on post-treatment scores by using the baseline SF-MPQ total pain score as a covariate. Average weekly pain severity is analyzed using an analysis of covariance model with repeated measures using the treatment week and the mean pain severity rating during the Pre-randomization Phase as covariates. Usage of rescue medication during the Double-blind Phase is analyzed using the Cochran-Mantel-Haenszel test controlling for center. […]

The next assay concerns Wistar rats. The experiment in a line: model of neuropathic pain in the rat (partial sciatic nerve ligation, mechanical hyperalgesia). Type of assay: in vivo. Conditions: 10 mg/kg p.o., after 3 hours. The text has this:
The activity of the compounds in the treatment of neuropathic pain is evidenced, for example, in the following model of neuropathic pain in the rat:
Wistar rats are anaesthetised with enflurane and a small incision is made mid-way up one thigh to expose the sciatic nerve. The nerve is cleared of connective tissue and a 7-0 silk suture is inserted into the nerve using a ⅜ curved reverse-cutting min-needle, and tightly ligated so that the dorsal ⅓ to ½ of the nerve thickness is held within the ligature. The muscle and skin are closed with sutures and clips and the wound dusted with antibiotic powder. […] Mechanical hyperalgesia is assessed by measuring paw withdrawal thresholds on both the ipsilateral (ligated) and contralateral (unligated) hindpaw to an increasing pressure stimulus applied to the paw using an analgesymeter (Ugo-Basile) with a wedge-shaped probe (area 1.75 mm^2) and a cut-off threshold of 250 g. […] Reversal of established hyperalgesia by administered compounds is measured 12-14 days following surgery, using 6 animals per treatment group. Paw withdrawal thresholds are measured prior to and then up to 6 hours following drug or vehicle administration. Statistical analysis is carried out on withdrawal threshold readings using ANOVA followed by Tukey's HSD test comparing drug treated and time-matched vehicle treated animals.

A further assay has as its system neurons. Conditions: superfusion, in vitro. An excerpt: The activity in tinnitus of the compounds is indicated in standard tests, e.g. in the salicylate-induced tinnitus model.
The test system of a further assay is auditory neurons. The experiment in a line: extracellular electrophysiological recording of auditory neuron firing rate.

The structures appear in SMILES notation.

Consider `c1ccc(C2(N3CCCCC3)CCCCC2)cc1` [PCP, phencyclidine], for which the “head-swaying and circling induced” value in the assay with Wistar Kyoto rats [1] was “weak head-swaying and circling”.

As for `N[C@@H](Cc1cc(CP(=O)(O)O)cc(-c2ccccc2Cl)c1)C(=O)O` [SDZ 220-581, (S)-2-amino-3-(2′-chloro-5-phosphonomethyl-biphenyl-3-yl)-propionic acid], the “distance walked during 30 min” value with Wistar Kyoto rats [2] (10 mg/kg s.c., control animals approximately 8-10 m) was “approximately 30 m”.

Take `O=c1[nH]c2cc([N+](=O)[O-])cc(CNCP(=O)(O)O)c2[nH]c1=O` [{[(7-nitro-2,3-dioxo-1,2,3,4-tetrahydro-quinoxalin-5-ylmethyl)-amino]-methyl}-phosphonic acid]: the “pain severity ratings relative to placebo” value in assay [3] is reported as “decrease pain severity ratings relative to placebo”. The “maximal reversal of neuropathic mechanical hyperalgesia” value in the assay on Wistar rats is reported as 35%. Besides, in the assay on Wistar Kyoto rats [2] (compound 10 mg/kg s.c., SDZ 220-581 10 mg/kg s.c.), the “effect of the NMDA-antagonist SDZ 220-581 on locomotion after pretreatment” value is listed as “almost normalized”.

Consider `O=C(O)c1ccccc1O` [salicylate], for which the “excitability of the recorded neurons” value in the assay with neurons is listed as “increases the excitability”. Besides, the “firing rate of auditory neurons” value in the assay with auditory neurons is “increase in the firing rate”.

For `C=C[C@H]1C[N@@]2CC[C@H]1C[C@H]2[C@H](O)c1ccnc2ccc(OC)cc12` [quinine], the “firing rate of auditory neurons” value with auditory neurons was “increase in the firing rate”.
